{"source": "patent US20250205211A1", "about": "“TYK2 INHIBITORS AND USES THEREOF” (Alumis Inc., priority 2022, published 2025)", "assay": "FIH study: single doses and seven-day courses of Compound A in healthy participants (safety, pharmacokinetics)", "format": "in vivo, human", "key": {"[1]": {"conditions": "single dose 100 mg, FIH study, mean"}}, "data": [{"smiles": "[2H]C([2H])([2H])CC(=O)c1cnc(NC(=O)C2CC2)cc1Nc1cccc(-c2ncn(C([2H])([2H])[2H])n2)c1OC", "note": "[Compound A, N-(4-((2-Methoxy-3-(1-(methyl-d3)-1H-1,2,4-triazol-3-yl)phenyl)amino)-5-(propanoyl-3,3,3-d3)pyridin-2-yl)cyclopropanecarboxamide]", "values": [{"measurement": "AUC", "setting": "human, in vivo, oral, seven-day course, 40 mg q12h, read-out: mean AUC from time 0 to 12 hours at steady state [AUCo-12,ss]", "result": 3620, "unit": "ng·h/mL"}, {"measurement": "Cmax", "setting": "human, in vivo, oral, single dose 100 mg, FIH study, highest individual value", "result": 1160, "unit": "ng/mL"}, {"measurement": "AUC(0-inf)", "setting": "human, in vivo, oral, single dose 100 mg, FIH study, highest individual value, read-out: AUC0-inf highest value", "result": 13700, "unit": "ng·h/mL"}, {"measurement": "mean Cmax at steady state [Cmax,ss]", "setting": "seven-day course, 40 mg q12h", "result": 433, "unit": "ng/mL"}, {"measurement": "tolerability of seven-day courses", "setting": "seven-day courses of up to 40 mg q12h", "result": "well tolerated"}, {"measurement": "AUC0-inf averaged", "setting": "[1]", "result": "11,286 ng*h/mL"}, {"measurement": "Cmax averaged", "setting": "[1]", "result": 949, "unit": "ng/mL"}, {"measurement": "safety of single doses", "setting": "single doses of up to 100 mg", "result": "without clinically significant safety concerns"}]}]}
